Reference: PMC9699072 (Molecules, 2022)
Where a name gives a salt, the structure may show the parent alone. Read-outs that look alike come from different tables or passages of the source.

Tests used:
[1] = system: normal human dermal fibroblast (NHDF) cultures; assay: Cytotoxicity, MTT/formazan assay; assay type: cell-based; conditions: 72 h, MTT
Description: Cytotoxicity of compounds was evaluated using a culture of human dermal fibroblasts, which were isolated in the Laboratory of Cell Cultures of the Institute of Medical Cell Technologies, Ekaterinburg, Russia. Cells were seeded in 96-well plates in the inoculum dose of 2 × 10^5 cells/mL and cultured for 24 h in Dulbecco’s Modified Eagle Medium (DMEM), with 1% (w/v) glutamine in the presence of 10% (v/v) fetal bovine serum and gentamicin (50 mg/L) at 37 °C, with a humidified atmosphere of 5% (v/v) CO2. Then, compounds, which were solved in DMSO, were added to the wells at the final concentrations of 0.1, 1, 10, and 100 µM. The cells were incubated with compounds for 72 h, after which cell viability was assessed using the standard MTT assay. The assay was carried out in four replicates with negative (culture medium) and positive (solution of the cytotoxic drug camptothecin at a concentration of 3 mM) controls, and the solvent control (DMSO). […] The MTT staining of control cells was taken as 100%.

[2] = ORAC-FL (oxygen radical absorbance capacity) assay; assay type: biochemical; conditions: mean ± SEM, n = 3; 2 h; read-out: ORAC-FL IC50 (compound concentration required for 50% reduction of peroxyl radical) (converted)
[3] = molecular target: T1, human erythrocyte AChE (Homo sapiens, UniProt P22303); assay: Inhibition of AChE (Ellman's colorimetric assay); assay type: biochemical; conditions: read-out: AChE % inhibition at 20 μM
T1 construct: Human erythrocyte acetylcholinesterase (AChE, EC 3.1.1.7); purchased Sigma-Aldrich (Saint Louis, MO, USA); host or cells: human erythrocytes
From the text: Given the available literature data on the ability of pyrazole derivatives to inhibit acetylcholinesterase (AChE) and human carboxylesterase-1 (CES), we performed an investigation of the esterase profile for new compounds 1a–j and 4a–j, including an evaluation of their inhibitory effect on the standard enzymes set: human erythrocyte AChE, equine serum butyrylcholinesterase (BChE), and porcine liver CES (Table 2). The applicability of this set of enzymes was shown by us earlier.
Human erythrocyte acetylcholinesterase (AChE, EC 3.1.1.7), equine serum butyrylcholinesterase (BChE, EC 3.1.1.8), porcine liver carboxylesterase (CES, EC 3.1.1.1), acetylthiocholine iodide (ATCh), butyrylthiocholine iodide (BTCh), 4-nitrophenol acetate (4-NPA), and 5,5′-dithio-bis-(2-nitrobenzoic acid) (DTNB) were purchased from Sigma-Aldrich (Saint Louis, MO, USA).
All the kinetic experiments were performed under standard conditions, according to the protocol of IPAC RAS for a reversible inhibitors study.
Ellman’s colorimetric assay was used to measure AChE and BChE activity in 0.1 M K/Na phosphate buffer at pH 7.5, 25 °C [86]. Final concentrations of reactants were 0.33 mM DTNB, 0.02 unit/mL of AChE or BChE, and 1 mM of substrate (ATCh or BTCh, respectively). Reagent blanks consisted of reaction mixtures without enzyme to assess non-enzymatic hydrolysis of substrates. Porcine liver CES activity was assessed colorimetrically in 0.1 M K/Na phosphate buffer with pH 8.0 at 25 °C, by measuring the absorbance of 4-nitrophenol at 405 nm. Final enzyme and substrate (4-NPA) concentrations were 0.02 unit/mL and 1 mM, respectively. Reagent blanks included all constituents except enzyme.
Test compounds were dissolved in DMSO. Reaction mixtures contained a final DMSO concentration of 2% (v/v). Enzyme inhibition was first assessed at a single concentration of 20 µM for each compound after a 10 min incubation at 25 °C in three separate experiments. Compounds inhibiting the enzyme by more than 30% were then selected for determination of the IC50 (inhibitor concentration resulting in 50% inhibition of control enzyme activity). […] Substrate was then added, and residual enzyme activity relative to an inhibitor-free control was measured using a FLUOStar Optima microplate reader (LabTech, Ortenberg, Germany).

[4] = design: method as in PMID 16997555; conditions: relative to EDA; cited from earlier work
[5] = 20 μM, ± SEM, n = 3, 10 min incubation 25 °C

T1 sequence (P22303 32-617 isoform P22303-2 limits assumed): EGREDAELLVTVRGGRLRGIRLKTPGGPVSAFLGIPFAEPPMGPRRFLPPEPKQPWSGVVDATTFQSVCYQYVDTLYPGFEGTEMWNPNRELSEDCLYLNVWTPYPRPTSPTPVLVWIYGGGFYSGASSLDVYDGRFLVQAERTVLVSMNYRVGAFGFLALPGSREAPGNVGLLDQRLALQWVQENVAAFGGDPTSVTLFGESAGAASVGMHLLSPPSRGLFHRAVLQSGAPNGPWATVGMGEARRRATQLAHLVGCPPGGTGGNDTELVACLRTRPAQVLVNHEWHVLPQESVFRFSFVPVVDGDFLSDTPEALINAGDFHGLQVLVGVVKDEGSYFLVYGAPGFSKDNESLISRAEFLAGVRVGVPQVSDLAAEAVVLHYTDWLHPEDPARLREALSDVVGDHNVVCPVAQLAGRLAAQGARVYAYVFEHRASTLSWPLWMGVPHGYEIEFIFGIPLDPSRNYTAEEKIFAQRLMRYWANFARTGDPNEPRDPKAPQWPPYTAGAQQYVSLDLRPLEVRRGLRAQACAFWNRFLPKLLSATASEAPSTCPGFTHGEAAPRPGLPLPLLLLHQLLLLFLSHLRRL

Compound	IC50 [2] [µM]	inhibition at 20 µM [3] [%]	also measured
3-methyl-1-phenyl-2-pyrazolin-5-one [EDA, reference compound]	5.6	–	Inhibitory Capability (IC, %) on NHDF ([1]; 1 µM): 3.74 ± 0.05%; Inhibitory Capability (IC, %) on NHDF ([1]; 10 µM): 19.9 ± 0.8%; Inhibitory Capability (IC, %) on NHDF ([1]; 100 µM): 32.8 ± 0.6%
Cl.Nc1c(C(F)(F)F)nn(-c2ccccc2)c1O [4a, 4-Amino-3-(trifluoromethyl)-1-phenyl-1H-pyrazol-5-ol hydrochloride]	8.8	–	inhibition at 20 µM [3, 5]: 7.9 ± 1.5%
Cl.Nc1c(C(F)(F)C(F)(F)F)nn(-c2ccccc2)c1O.O [4b, 4-Amino-3-(pentafluoroethyl)-1-phenyl-1H-pyrazol-5-ol hydrate hydrochloride]	–	4.4 ± 1.1	–
Nc1c(C(F)(F)C(F)(F)C(F)(F)C(F)(F)F)nn(-c2ccccc2)c1O [4c, 5-Hydroxy-1-phenyl-3-(nonafluorobuthyl)-1H-pyrazol-4-ammonium hydrochloride]	–	19.2 ± 1.7	–
Cc1nn(-c2ccccc2)c(O)c1N.Cl.O [4d, 4-Amino-3-methyl-1-phenyl-1H-pyrazol-5-ol hydrochloride hydrate]	6.85	6.5 ± 1.2	Cytotoxicity against NHDF cell culture ([1]; 100 µM): neither of the compounds 4d,j showed cytotoxicity; Cytotoxicity against NHDF cell culture ([1]; 100 µM, listed as APH): not cytotoxic
Cl.Nc1c(C(F)(F)F)n[nH]c1O [4e, 4-Amino-3-(trifluoromethyl)-1H-pyrazol-5-ol hydrochloride]	–	–	inhibition at 20 µM [3, 5]: 9.7 ± 1.5%
Cl.Nc1c(C(F)(F)C(F)(F)F)n[nH]c1O.O [4g, 4-Amino-3-(pentafluoroethyl)-1H-pyrazol-5-ol hydrate hydrochloride]	–	17.3 ± 1.7	–
Cl.Nc1c(C(F)(F)C(F)(F)C(F)(F)C(F)(F)F)n[nH]c1O.O [4i, 4-Amino-3-(nonafluorobutyl)-1H-pyrazol-5-ol hydrate hydrochloride]	–	5.1 ± 0.9	–
Cc1n[nH]c(O)c1N.Cl [4j, 4-Amino-3-methyl-1H-pyrazol-5-ol hydrochloride]	–	–	Cytotoxicity against NHDF cell culture ([1]; 100 µM): neither of the compounds 4d,j showed cytotoxicity
Oc1cc(C(F)(F)F)nn1-c1ccccc1 [CF3-EDA, 3-trifluoromethyl-1-phenylpyrazol-5-ol, reference compound]	6.3	–	Times less active compared to EDA in the OH radical binding test [4]: 3 times
